Results reported in US12037583B2, “Compositions and methods for immunooncology” (Novartis AG, priority 2015, dated 2024).

Assays:
PDCD1 = assay: NGS editing of PDCD1 by dgRNA in HEK cells stably expressing Cas9; format: cell-based, human; details: at least 3 experiments;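 also: dgRNA lipofected into Cas9-expressing HEK cells, lysed after 24 h, target amplicon sequenced, editing = reads carrying insertions or deletions as percent of all reads including wild type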
CIITA = assay: NGS editing and frameshift edit of CIITA by dgRNA in HEK293 cells expressing Cas9; format: cell-based, human; details: HEK293 cells stably expressing Cas9, dgRNA to CIITA; for Avg. % Edit: N = 3; for Avg. % FS: frameshift edit
Experimental: Editing of CIITA with dgRNAs targeted to the CIITA gene were assayed in HEK293 cells engineered to express Cas9, as described above in Example 1.

Substance | HEK (NGS) % Editing Mean (PDCD1) [%] | Avg. % Edit (CIITA) [%] | Avg. % FS (CIITA) [%]
CR000824: dgRNA targeting domain to PDCD1 (guide UCAGGCGGAGGUGAGCGGAA; targeting domain within dual guide RNA, chemistry not given here, further chemistry not given here; listed as Homo sapiens) | 54 |  | 
CR000825: dgRNA targeting domain to PDCD1 (guide CUCAGGCGGAGGUGAGCGGA; targeting domain within dual guide RNA, chemistry not given here, further chemistry not given here; listed as Homo sapiens) | 46 |  | 
CR000826: dgRNA targeting domain to PDCD1 (guide ACUGCUCAGGCGGAGGUGAG; targeting domain within dual guide RNA, chemistry not given here, further chemistry not given here; listed as Homo sapiens) | 70 |  | 
CR000827: dgRNA targeting domain to PDCD1 (guide GCUCACCUCCGCCUGAGCAG; targeting domain within dual guide RNA, chemistry not given here, further chemistry not given here; listed as Homo sapiens) | 39 |  | 
CR000828: dgRNA targeting domain to PDCD1 (guide CUUCUCCACUGCUCAGGCGG; targeting domain within dual guide RNA, chemistry not given here, further chemistry not given here; listed as Homo sapiens) | 69 |  | 
CR000829: dgRNA targeting domain to PDCD1 (guide CAGUGGAGAAGGCGGCACUC; targeting domain within dual guide RNA, chemistry not given here, further chemistry not given here; listed as Homo sapiens) | 68 |  | 
CR000830: dgRNA targeting domain to PDCD1 (guide UGGAGAAGGCGGCACUCUGG; targeting domain within dual guide RNA, chemistry not given here, further chemistry not given here; listed as Homo sapiens) | 57 |  | 
CR000831: dgRNA targeting domain to PDCD1 (guide GGAGAAGGCGGCACUCUGGU; targeting domain within dual guide RNA, chemistry not given here, further chemistry not given here; listed as Homo sapiens) | 66 |  | 
CR000832: dgRNA targeting domain to PDCD1 (guide GAGAAGGCGGCACUCUGGUG; targeting domain within dual guide RNA, chemistry not given here, further chemistry not given here; listed as Homo sapiens) | 49 |  | 
CR000833: dgRNA targeting domain to PDCD1 (guide AGGCGCCCUGGCCAGUCGUC; targeting domain within dual guide RNA, chemistry not given here, further chemistry not given here; listed as Homo sapiens) | 34 |  | 
CR002999 (guide UGUCUUCCAGGACUCCCAGC; targeting domain within dual guide RNA, chemistry not given here, further chemistry not given here; listed as Homo sapiens) |  | 23.50 | 18.58
CR003000 (guide CUUCCAGGACUCCCAGCUGG; targeting domain within dual guide RNA, chemistry not given here, further chemistry not given here; listed as Homo sapiens) |  | 12.83 | 10.53
CR003002 (guide GGCCCUCCAGCUGGGAGUCC; targeting domain within dual guide RNA, chemistry not given here, further chemistry not given here; listed as Homo sapiens) |  | 11.85 | 9.78
CR003003 (guide CUUGCUCAGGCCCUCCAGCU; targeting domain within dual guide RNA, chemistry not given here, further chemistry not given here; listed as Homo sapiens) |  | 35.07 | 27.91
CR003004 (guide CCUUGCUCAGGCCCUCCAGC; targeting domain within dual guide RNA, chemistry not given here, further chemistry not given here; listed as Homo sapiens) |  | 19.43 | 15.63
CR003005 (guide CCAGCUGGAGGGCCUGAGCA; targeting domain within dual guide RNA, chemistry not given here, further chemistry not given here; listed as Homo sapiens) |  | 21.11 | 18.08

Substance | HEK (NGS) % Editing Mean (PDCD1) [%] | Avg. % Edit (CIITA) [%] | Avg. % FS (CIITA) [%]
CR003006 (guide UACUGAAAAUGUCCUUGCUC; targeting domain within dual guide RNA, chemistry not given here, further chemistry not given here; listed as Homo sapiens) |  | 19.46 | 14.66
CR003008 (guide CUCUCACCGAUCACUUCAUC; targeting domain within dual guide RNA, chemistry not given here, further chemistry not given here; listed as Homo sapiens) |  | 15.30 | 10.91
CR003010 (guide AUGGAGAUGCCAGCAGAAGU; targeting domain within dual guide RNA, chemistry not given here, further chemistry not given here; listed as Homo sapiens) |  | 25.45 | 14.37
CR003012 (guide CUUUUCUGCCCAACUUCUGC; targeting domain within dual guide RNA, chemistry not given here, further chemistry not given here; listed as Homo sapiens) |  | 10.67 | 7.51
CR003014 (guide GGUCUGCCGGAAGCUCCUCU; targeting domain within dual guide RNA, chemistry not given here, further chemistry not given here; listed as Homo sapiens) |  | 32.51 | 26.93
CR003015 (guide AGGUCUGCCGGAAGCUCCUC; targeting domain within dual guide RNA, chemistry not given here, further chemistry not given here; listed as Homo sapiens) |  | 27.40 | 24.05
CR003016 (guide UUCCGGCAGACCUGAAGCAC; targeting domain within dual guide RNA, chemistry not given here, further chemistry not given here; listed as Homo sapiens) |  | 17.86 | 13.55
CR003017 (guide UUCCAGUGCUUCAGGUCUGC; targeting domain within dual guide RNA, chemistry not given here, further chemistry not given here; listed as Homo sapiens) |  | 21.90 | 15.22
CR003018 (guide GAGCCCCCCACUGUGGUGAC; targeting domain within dual guide RNA, chemistry not given here, further chemistry not given here; listed as Homo sapiens) |  | 27.72 | 26.54
CR003019 (guide CUGCCAGUCACCACAGUGGG; targeting domain within dual guide RNA, chemistry not given here, further chemistry not given here; listed as Homo sapiens) |  | 11.80 | 9.74
CR003020 (guide ACUGCCAGUCACCACAGUGG; targeting domain within dual guide RNA, chemistry not given here, further chemistry not given here; listed as Homo sapiens) |  | 23.67 | 16.44
CR003022 (guide AGACUGCCAGUCACCACAGU; targeting domain within dual guide RNA, chemistry not given here, further chemistry not given here; listed as Homo sapiens) |  | 23.73 | 17.96
CR003023 (guide GAGACUGCCAGUCACCACAG; targeting domain within dual guide RNA, chemistry not given here, further chemistry not given here; listed as Homo sapiens) |  | 29.38 | 16.83
CR003024 (guide GGUGACUGGCAGUCUCCUAG; targeting domain within dual guide RNA, chemistry not given here, further chemistry not given here; listed as Homo sapiens) |  | 20.40 | 16.33
CR003025 (guide GUGACUGGCAGUCUCCUAGU; targeting domain within dual guide RNA, chemistry not given here, further chemistry not given here; listed as Homo sapiens) |  | 24.52 | 19.21
CR003026 (guide AGUCGCUCACUGGUCCCACU; targeting domain within dual guide RNA, chemistry not given here, further chemistry not given here; listed as Homo sapiens) |  | 29.63 | 20.05
